From patent US12157746B2, “Tetrahydro-1H-pyrazino[2,1-a]isoindolylquinoline compounds for the treatment of autoimmune disease” (F. HOFFMANN-LA ROCHE AG, priority 2018, dated 2024)
pIC50: −log10 of the molar value.

Biological target: T1, human TLR9 (Homo sapiens, UniProt Q9NR96)
T1 sequence (Q9NR96 26-1032): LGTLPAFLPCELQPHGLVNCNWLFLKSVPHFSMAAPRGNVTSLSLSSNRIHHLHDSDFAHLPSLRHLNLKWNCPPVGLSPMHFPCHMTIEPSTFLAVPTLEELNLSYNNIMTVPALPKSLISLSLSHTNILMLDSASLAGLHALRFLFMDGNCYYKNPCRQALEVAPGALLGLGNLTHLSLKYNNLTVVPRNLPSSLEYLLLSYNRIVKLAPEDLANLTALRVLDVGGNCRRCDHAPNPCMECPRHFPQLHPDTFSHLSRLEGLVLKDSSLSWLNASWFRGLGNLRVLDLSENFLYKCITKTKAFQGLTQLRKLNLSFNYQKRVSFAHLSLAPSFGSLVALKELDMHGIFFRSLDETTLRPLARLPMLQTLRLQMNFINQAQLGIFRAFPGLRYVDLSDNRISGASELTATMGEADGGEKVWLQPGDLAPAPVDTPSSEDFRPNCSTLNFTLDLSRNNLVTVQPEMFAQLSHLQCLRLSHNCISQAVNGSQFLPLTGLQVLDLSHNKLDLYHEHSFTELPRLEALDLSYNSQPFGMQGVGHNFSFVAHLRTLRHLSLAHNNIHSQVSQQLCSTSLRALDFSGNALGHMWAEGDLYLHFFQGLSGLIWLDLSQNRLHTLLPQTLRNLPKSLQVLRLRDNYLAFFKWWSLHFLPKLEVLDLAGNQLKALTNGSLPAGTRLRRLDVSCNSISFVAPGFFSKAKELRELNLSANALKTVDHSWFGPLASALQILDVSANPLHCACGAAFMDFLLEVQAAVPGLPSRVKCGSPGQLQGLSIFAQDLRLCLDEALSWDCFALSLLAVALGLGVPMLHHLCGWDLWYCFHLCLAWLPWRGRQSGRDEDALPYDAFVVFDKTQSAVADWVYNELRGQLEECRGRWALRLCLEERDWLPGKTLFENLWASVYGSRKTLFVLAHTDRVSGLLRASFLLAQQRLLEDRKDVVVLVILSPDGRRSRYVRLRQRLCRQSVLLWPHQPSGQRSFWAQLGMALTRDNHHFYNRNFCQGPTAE
Assay: HEK293-Blue-hTLR-9 cells assay
Type: cell-based
Settings: HEK293-Blue-hTLR9 cells, ODN2006 stimulation, 20 hrs, SEAP reporter; read-out: HEK/hTLR9 IC50
From the text: HEK293-Blue-hTLR-9 Cells Assay:
A stable HEK293-Blue-hTLR-9 cell line was purchased from InvivoGen (Cat. #: hkb-htlr9, San Diego. California USA). These cells were originally designed for studying the stimulation of human TLR9 by monitoring the activation of NF-κB. A SEAP (secreted embryonic alkaline phosphatase) reporter gene was placed under the control of the IFN-β minimal promoter fused to five NF-κB and AP-1-binding sites. The SEAP was induced by activating NF-κB and AP-1 via stimulating HEK-Blue hTLR9 cells with TLR9 ligands. Therefore the reporter expression was declined by TLR9 antagonist under the stimulation of a ligand, such as ODN2006 (Cat. #: tlrl-2006-1, Invivogen, San Diego, California USA), for incubation of 20 hrs. The cell culture supernatant SEAP reporter activity was determined using QUANTI-Blue™ kit (Cat. #: rep-qb1, Invivogen, San Diego, California, USA) at a wavelength of 640 nm, a detection medium that turns purple or blue in the presence of alkaline phosphatase.
HEK293-Blue-hTLR9 cells were incubated at a density of 250.000-450,000 cells/mL in a volume of 170 μL in a 96-well plate in Dulbecco's Modified Eagle's medium (DMEM) containing 4.5 g/L glucose, 50 U/mL penicillin, […], […], 2 mM L-glutamine, 10% (v/v) heat-inactivated fetal bovine serum with addition of 20 μL test compound 1n a serial dilution in the presence of final DMSO at 1% and 10 μL of 20 uM ODN2006 in above DMEM, perform incubation under 37° C. in a CO2 incubator for 20 hrs. Then 20 μL of the supernatant from each well was incubated with 180 μL Quanti-blue substrate solution at 37° C. for 2 h and the absorbance was read at 620˜655 nm using a spectrophotometer. The signaling pathway that TLR9 activation leads to downstream NF-κB activation has been widely accepted, and therefore similar reporter assay was modified for evaluating TLR9 antagonist.

pIC50 | SMILES
7.02 | CO[C@H]1CN(c2ccc3c(c2)CN2[C@H](C)CN(c4ccc(C#N)c5ncccc45)C[C@H]32)C[C@@H]1N (relative stereo) [Example 16, 5-[(4R,10bS)-8-[trans-3-amino-4-methoxy-pyrrolidin-1-yl]-4-methyl-3,4,6,10b-tetrahydro-1H-pyrazino[2,1-a]isoindol-2-yl]quinoline-8-carbonitrile]
6.88 | C[C@@H]1CN(c2ccc(C#N)n3nccc23)C[C@@H]2c3ccc(N4CCNCC4)cc3CN12 [Example 5, 4-[(4R,10bS)-4-methyl-8-piperazin-1-yl-3,4,6,10b-tetrahydro-1H-pyrazino[2,1-a]isoindol-2-yl]pyrazolo[1,5-a]pyridine-7-carbonitrile]
6.82 | C[C@@H]1CN(c2ccc(C#N)c3ncccc23)C[C@@H]2c3cccc(N4CCNCC4)c3CN12 [Example 8, 5-[(4R,10bS)-4-methyl-7-piperazin-1-yl-3,4,6,10b-tetrahydro-1H-pyrazino[2,1-a]isoindol-2-yl]quinoline-8-carbonitrile]
6.89 | C[C@@H]1CN(c2ccc(C#N)c3ncccc23)C[C@@H]2c3ccc(C4CCNCC4)cc3CN12 [Example 9, 5-[(4R,10bS)-4-methyl-8-(4-piperidyl)-3,4,6,10b-tetrahydro-1H-pyrazino[2,1-a]isoindol-2-yl]quinoline-8-carbonitrile]
7.03 | C[C@@H]1CN(c2ccc(C#N)c3ncccc23)C[C@@H]2c3ccc(N4CCNC[C@@H]4CO)cc3CN12 [Example 10, 5-[(4R,10bS)-8-[(2R)-2-(hydroxymethyl)piperazin-1-yl]-4-methyl-3,4,6,10b-tetrahydro-1H-pyrazino[2,1-a]isoindol-2-yl]quinoline-8-carbonitrile]
7.08 | C[C@@H]1CN(c2ccc(C#N)c3ncccc23)C[C@@H]2c3ccc(N4CCNCC(O)C4)cc3CN12 (stereo partly drawn) [Example 15, 5-[(4R,10bS)-8-(6-hydroxy-1,4-diazepan-1-yl)-4-methyl-3,4,6,10b-tetrahydro-1H-pyrazino[2,1-a]isoindol-2-yl]quinoline-8-carbonitrile]
6.94 | C[C@@H]1CN(c2ccc(C#N)c3ncccc23)C[C@@H]2c3ccc(N4CC(N)C5(COC5)C4)cc3CN12 (stereo partly drawn) [Example 18, 5-[(4R,10bS)-8-(5-amino-2-oxa-7-azaspiro[3.4]octan-7-yl)-4-methyl-3,4,6,10b-tetrahydro-1H-pyrazino[2,1-a]isoindol-2-yl]quinoline-8-carbonitrile]
6.98 | C[C@@H]1CN(c2ccc(C#N)c3ncccc23)C[C@@H]2c3ccc(N4CC(N)C4)cc3CN12 [Example 22, 5-[(4R,10bS)-8-(3-aminoazetidin-1-yl)-4-methyl-3,4,6,10b-tetrahydro-1H-pyrazino[2,1-a]isoindol-2-yl]quinoline-8-carbonitrile]
7.03 | CN[C@H]1CN(c2ccc3c(c2)CN2[C@H](C)CN(c4ccc(C#N)c5ncccc45)C[C@H]32)C[C@@H]1OC [Example 23, 5-[(4R,10bS)-8-[(3S,4S)-3-methoxy-4-(methylamino)pyrrolidin-1-yl]-4-methyl-3,4,6,10b-tetrahydro-1H-pyrazino[2,1-a]isoindol-2-yl]quinoline-8-carbonitrile]
7.04 | C[C@@H]1CN(c2ccc(C#N)c3ncccc23)C[C@@H]2c3ccc(N4CCOC5(CNC5)C4)cc3CN12 [Example 24, 5-[(4R,10bS)-4-methyl-8-(5-oxa-2,8-diazaspiro[3.5]nonan-8-yl)-3,4,6,10b-tetrahydro-1H-pyrazino[2,1-a]isoindol-2-yl]quinoline-8-carbonitrile]
7.36 | C[C@@H]1CN(c2ccc(C#N)c3ncccc23)C[C@@H]2c3ccc(C4CNC4)cc3CN12 [Example 29, 5-[(4R,10bS)-8-(azetidin-3-yl)-4-methyl-3,4,6,10b-tetrahydro-1H-pyrazino[2,1-a]isoindol-2-yl]quinoline-8-carbonitrile]
7.03 | C[C@@H]1CN(c2ccc(C#N)c3ncccc23)C[C@@H]2c3ccc(N[C@H]4CNC[C@@H]4F)cc3CN12 [Example 31, 5-[(4R,10bS)-8-[[(3S,4S)-4-fluoropyrrolidin-3-yl]amino]-4-methyl-3,4,6,10b-tetrahydro-1H-pyrazino[2,1-a]isoindol-2-yl]quinoline-8-carbonitrile]
7.00 | C[C@@H]1CN(c2ccc(C#N)c3ncccc23)C[C@@H]2c3ccc(N[C@@H]4CNC[C@H]4F)cc3CN12 [Example 33, 5-[(4R,10bS)-8-[[(3R,4R)-4-fluoropyrrolidin-3-yl]amino]-4-methyl-3,4,6,10b-tetrahydro-1H-pyrazino[2,1-a]isoindol-2-yl]quinoline-8-carbonitrile]
7.18 | CO[C@@H]1CNC[C@H]1Nc1ccc2c(c1)CN1[C@H](C)CN(c3ccc(C#N)c4ncccc34)C[C@H]21 [Example 34, 5-[(4R,10bS)-8-[[(3R,4R)-4-methoxypyrrolidin-3-yl]amino]-4-methyl-3,4,6,10b-tetrahydro-1H-pyrazino[2,1-a]isoindol-2-yl]quinoline-8-carbonitrile]
6.95 | C[C@@H]1CN(c2ccc(C#N)c3ncccc23)C[C@@H]2c3ccc(N4CC5(CNCCO5)C4)cc3CN12 [Example 35, 5-[(4R,10bS)-4-methyl-8-(5-oxa-2,8-diazaspiro[3.5]nonan-2-yl)-3,4,6,10b-tetrahydro-1H-pyrazino[2,1-a]isoindol-2-yl]quinoline-8-carbonitrile]
> 7.50 | COC12CNCC1CN(c1ccc3c(c1)CN1[C@H](C)CN(c4ccc(C#N)c5ncccc45)C[C@H]31)C2 (stereo partly drawn) [Example 41, 5-[(4R,10bS)-8-(3a-methoxy-1,2,3,4,6,6a-hexahydropyrrolo[3,4-c]pyrrol-5-yl)-4-methyl-3,4,6,10b-tetrahydro-1H-pyrazino[2,1-a]isoindol-2-yl]quinoline-8-carbonitrile]
7.18 | CN[C@H]1CN(c2ccc3c(c2)CN2[C@H](C)CN(c4ccc(C#N)c5ncccc45)C[C@H]32)C[C@@H]1O [Example 42, 5-[(4R,10bS)-8-[(3S,4S)-3-hydroxy-4-(methylamino)pyrrolidin-1-yl]-4-methyl-3,4,6,10b-tetrahydro-1H-pyrazino[2,1-a]isoindol-2-yl]quinoline-8-carbonitrile]
7.26 | CN[C@@H]1CN(c2ccc3c(c2)CN2[C@H](C)CN(c4ccc(C#N)c5ncccc45)C[C@H]32)C[C@H]1O [Example 43, 5-[(4R,10bS)-4-methyl-8-[(3R,4R)-3-hydroxy-4-(methylamino)pyrrolidin-1-yl]-3,4,6,10b-tetrahydro-1H-pyrazino[2,1-a]isoindol-2-yl]quinoline-8-carbonitrile]
6.99 | C[C@@H]1CN(c2ccc(C#N)c3ncccc23)C[C@@H]2c3ccc(N4C[C@H]5NCCO[C@@H]5C4)cc3CN12 [Example 44, 5-[(4R,10bS)-4-methyl-8-[(4aR,7aR)-3,4,4a,5,7,7a-hexahydro-2H-pyrrolo[3,4-b][1,4]oxazin-6-yl]-3,4,6,10b-tetrahydro-1H-pyrazino[2,1-a]isoindol-2-yl]quinoline-8-carbonitrile]
6.84 | C[C@@H]1CN(c2ccc(C#N)c3ncccc23)C[C@@H]2c3ccc(N4C[C@@H](N)[C@@H](F)C4)cc3CN12 [Example 47, 5-[(4R,10bS)-8-[(3R,4S)-3-amino-4-fluoro-pyrrolidin-1-yl]-4-methyl-3,4,6,10b-tetrahydro-1H-pyrazino[2,1-a]isoindol-2-yl]quinoline-8-carbonitrile]
